Publication PMC7461584, “N-(2′-Hydroxyphenyl)-2-Propylpentanamide (HO-AAVPA) Inhibits HDAC1 and Increases the Translocation of HMGB1 Levels in Human Cervical Cancer Cells” (International Journal of Molecular Sciences, 2020)
“And” between values parts separate entries of the source, which are not always exact repeats. Equal entries are not always repeated. “Also recorded” adds a separate entry of the source. Values belong to the compound of their own block, whether it stands above or below them.

Tests used:
[1] = system: HMGB1 in SiHa cells; test: Localization of HMGB1 by confocal microscopy; assay type: cell-based, human; details: 12 h; for HMGB1 fluorescence intensity: vs DMSO vehicle
Procedure: A total of 20 × 10^3 cells per well were added to 24-well plates and incubated for 24 h in DMEM with FBS. Then, the cells were washed with phosphate buffered saline (PBS 1X). The groups received the following treatments: VPA at 1.4 and 0.35 mM, HO-AAVPA at 0.2 and 0.005 mM, vehicle (DMSO 0.1%), and incubated for 12 h. After incubation, the cells were fixed with paraformaldehyde (PFA 4%) at 37 °C for 20 min and permeabilized (PBS Tween-Triton 0.5%) for 5 min. Subsequently, the cells were washed and the primary antibody, anti-HMGB1 (GTX101277, GeneTex, Alton Pkwy Irvine, CA, USA), was added at a ratio of 1:1000 and incubated overnight. The secondary antibody, donkey anti-rabbit IgG H&L (Alexa Fluor 647, Thermo Fisher Scientific, México City, Mexico), was added at a ratio of 1:1000 and incubated at 4 °C for 4 h. Finally, the slides were washed with PBS and mounted with Vectashield (Mounting Laboratories, Inc. Burlingame, CA, USA).
The images were collected and analyzed with an Axioskop 2 mot plus confocal fluorescence microscope (Carl Zeiss, Mexico City, Mexico) at EC Plan-Neofluar 20×–40×/0.5 Ph2: LP 650, LP 505.

[2] = system: cervical cancer cells; set-up: method as in PMID 26942921; details: ref [25], cited from earlier work
[3] = set-up: method as in PMID 32387339, PMID 30236821, PMID 3146521; details: rat model; ref [19],[20],[21]; cited from earlier work
[4] = system: ROS (O2−·) levels in SiHa cells; test: Quantification of superoxide anion by electronic paramagnetic resonance; assay type: cell-based, human; details: 48 h
Procedure: The SiHa cells (500 × 10^3) were seeded in a […] dish and kept at 37 °C in a humidified atmosphere with 5% CO2 until they reached 70% confluence. After, the cells were treated with two different concentrations of VPA and HO-AAVPA (1.4 and 0.2 mM) and maintained for 48 h, the experiment was performed in triplicate and used as a control for data comparison with the SiHa cells treated only with medium. Next, the cells were trypsinized and centrifuged at 3000 rpm for 10 min, and the cell pellet was treated with the radical scavenger CM-H (1 hydroxy-3-methoxycarbonyl-2,2, 5,5-tetramethyl pyrrolidine) diluted in Krebs buffer (99 mM NaCl, 4.69 mM KCl, 2.5 mM CaCl2 × 2H2O, 1.2 mM MgSO4 × 7 H2O, 2.5 mM NaHCO3, 1.03 mM KH2PO4, 5.6 mM D-Glucose, and 20 mM Na-HEPES) with sodium diethyldithiocarbamate trihydrate (DETEC; 5 μM) and deferoxamine methane sulfonate salt (DF 25 μM) at a 89:3:8% v/v ratio of Krebs buffer: DETEC:DF. The stock solution of CMH (10 mM) was used to dilute each sample to 0.5 mM. The CM-H solution and the sample preparation were processed inside a nitrogen atmosphere chamber. The samples containing CM-H were incubated for 30 min at 37 °C with constant shaking. After the samples were centrifuged at 3000 rpm for 15 min, 50 µL of the supernatant was taken up with capillaries (Corning, Glendale, CA, USA) inside the nitrogen chamber, and each of the capillaries were sealed on both sides to determine the EPR measurements.
The measurements of O2^−· formation were performed in a Bruker e-scan spectrometer with the following parameters recorded: magnetic field 3490 G, window: 60 G, amplitude: 1.5 G, gain: 56.4, power: 0.0155 mW; and frequency: 9.743 GHz. WinEPR Acquisition software was used to analyze the results. The intensity of each sample was measured and normalized to the cell number for each sample. Finally, the result was expressed as the intensity for 10,000 cells.

[5] = biological target: T1, HDAC6 (Homo sapiens, UniProt Q9UBN7); test: Fluor de LYS HDAC6 inhibitory activity assay; assay type: biochemical
T1 construct: purchased Enzo Life Sciences BML-AK516
T1 sequence (Q9UBN7 1-1215): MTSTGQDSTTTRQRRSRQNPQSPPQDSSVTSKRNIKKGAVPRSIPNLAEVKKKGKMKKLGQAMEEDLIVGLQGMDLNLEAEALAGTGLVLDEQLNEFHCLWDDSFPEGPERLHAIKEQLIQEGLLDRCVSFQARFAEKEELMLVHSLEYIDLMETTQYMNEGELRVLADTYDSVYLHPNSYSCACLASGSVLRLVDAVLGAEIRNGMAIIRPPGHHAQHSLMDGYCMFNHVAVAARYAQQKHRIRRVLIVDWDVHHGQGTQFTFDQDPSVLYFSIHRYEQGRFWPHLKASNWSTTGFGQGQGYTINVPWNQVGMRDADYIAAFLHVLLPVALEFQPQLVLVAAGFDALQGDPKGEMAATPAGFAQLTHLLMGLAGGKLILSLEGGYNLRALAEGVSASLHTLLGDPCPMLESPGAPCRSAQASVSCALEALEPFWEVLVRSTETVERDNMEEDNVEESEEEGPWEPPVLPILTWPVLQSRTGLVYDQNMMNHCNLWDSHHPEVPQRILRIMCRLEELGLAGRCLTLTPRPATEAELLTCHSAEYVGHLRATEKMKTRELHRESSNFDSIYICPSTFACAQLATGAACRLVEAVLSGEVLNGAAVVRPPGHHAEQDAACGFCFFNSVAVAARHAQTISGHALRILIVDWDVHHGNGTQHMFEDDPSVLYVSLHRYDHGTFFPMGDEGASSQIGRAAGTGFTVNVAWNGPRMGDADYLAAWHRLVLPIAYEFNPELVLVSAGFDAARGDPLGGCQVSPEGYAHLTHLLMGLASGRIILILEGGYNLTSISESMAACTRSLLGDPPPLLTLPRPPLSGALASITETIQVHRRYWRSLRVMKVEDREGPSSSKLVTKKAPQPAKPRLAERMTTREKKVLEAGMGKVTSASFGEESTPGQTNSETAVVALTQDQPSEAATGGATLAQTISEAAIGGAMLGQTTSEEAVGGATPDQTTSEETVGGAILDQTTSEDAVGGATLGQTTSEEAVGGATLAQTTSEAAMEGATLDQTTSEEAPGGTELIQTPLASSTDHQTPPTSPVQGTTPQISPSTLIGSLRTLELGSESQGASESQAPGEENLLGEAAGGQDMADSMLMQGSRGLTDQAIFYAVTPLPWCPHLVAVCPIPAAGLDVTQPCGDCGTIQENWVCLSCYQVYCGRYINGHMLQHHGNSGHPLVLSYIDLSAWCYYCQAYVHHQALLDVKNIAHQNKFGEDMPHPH

[6] = Cell viability by MTT assay; assay type: cell-based, human; details: human, SiHa cells, at 2.5 mM
Procedure: (§1) SiHa cells were kindly donated by Dr. Nicolás Villegas Sepulveda from the Department of Molecular Biomedicine, […], México. SiHa cells were cultured in Dulbecco’s modified Eagle’s medium (DMEM Gibco, Life Technologies, Invitrogen, Sigma-Aldrich Co., Toluca City Mexico), supplemented with 10% fetal bovine serum (FBS, Biowest, Kansas City, MO, USA) and antibiotic and antimycotic agents (Gibco, Fisher Scientific UK Ltd, Loughborough, UK). The cultures were kept at 37 °C in a humidified atmosphere with 5% CO2.
(§2) After seeding 10 × 10^3 cells per well in transparent 96-well plates, the cells were incubated for 24 h in DMEM medium with FBS. Then, the cells were incubated with different concentrations of HO-AAVPA (0.5, 1.0, 1.5, 2.0, and 2.5 mM) and VPA (0.625, 1.25, 2.5, 5.0, and 7.5 mM). After 48 h of incubation, the supernatant was removed. Then, 20 μL of MTT solution (0.5 mg/mL) in buffer was added, and the cells were incubated at 37 °C for 4 h. After the MTT solution was removed from all the wells, the formazan salts were solubilized with 100 μL of DMSO, and the absorbance of each well was read at 550 nm on a spectrophotometer (Multiskan EX Microplate Photometer, Thermo Scientific, Mexico).

[7] = system: SiHa cells; test: Cell viability by MTT assay; assay type: cell-based, human; details: 48 h
Procedure: as §1, §2

[8] = biological target: T2, HDAC1 (Homo sapiens, UniProt Q13547); test: Fluor de LYS HDAC1 inhibitory activity assay; assay type: biochemical; details: 250 ng/well, 37 °C, 5 µM substrate; mean ± SE
T2 construct: purchased Enzo Life Sciences BML-AK511
T2 sequence (Q13547 whole entry): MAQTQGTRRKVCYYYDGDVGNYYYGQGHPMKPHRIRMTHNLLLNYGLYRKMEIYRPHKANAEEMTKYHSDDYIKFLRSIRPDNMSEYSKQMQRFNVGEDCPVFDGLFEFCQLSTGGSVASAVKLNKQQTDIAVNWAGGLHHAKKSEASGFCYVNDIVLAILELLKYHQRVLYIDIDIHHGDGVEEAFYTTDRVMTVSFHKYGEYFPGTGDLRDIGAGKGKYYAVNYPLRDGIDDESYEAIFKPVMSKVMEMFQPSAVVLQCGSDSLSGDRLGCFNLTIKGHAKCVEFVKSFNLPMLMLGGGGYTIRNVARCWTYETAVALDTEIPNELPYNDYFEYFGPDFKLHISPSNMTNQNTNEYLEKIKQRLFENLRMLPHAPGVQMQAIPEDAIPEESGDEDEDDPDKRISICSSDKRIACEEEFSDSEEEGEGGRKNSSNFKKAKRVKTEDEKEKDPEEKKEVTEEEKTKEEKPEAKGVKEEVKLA

[9] = biological target: T3, HDAC8 (Homo sapiens, UniProt Q9BY41); test: Fluor de LYS HDAC8 inhibitory activity assay; assay type: biochemical
T3 construct: purchased Enzo Life Sciences BML-AK518
T3 sequence (Q9BY41 1-377): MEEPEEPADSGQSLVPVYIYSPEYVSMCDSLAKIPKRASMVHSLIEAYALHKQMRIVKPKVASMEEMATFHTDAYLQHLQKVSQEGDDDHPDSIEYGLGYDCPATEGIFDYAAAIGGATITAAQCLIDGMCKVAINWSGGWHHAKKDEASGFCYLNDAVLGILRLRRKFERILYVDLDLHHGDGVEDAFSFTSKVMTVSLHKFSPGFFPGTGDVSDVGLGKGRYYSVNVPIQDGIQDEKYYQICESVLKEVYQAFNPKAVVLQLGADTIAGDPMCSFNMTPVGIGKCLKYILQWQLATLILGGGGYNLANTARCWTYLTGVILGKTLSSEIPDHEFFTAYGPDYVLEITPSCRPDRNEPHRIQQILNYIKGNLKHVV

Compound: CCCC(CCC)C(=O)O [VPA, valproic acid, reference compound]
HMGB1 localization ([1]; HO-AAVPA 0.2 mM, VPA 1.4 mM): HMGB1 is expressed in a larger amount in the nucleus; also recorded: observed predominantly in the nucleus
HMGB1 fluorescence intensity ([1]; HO-AAVPA 0.2 mM, VPA 1.4 mM): increase in the fluorescence was more; also recorded: significant increase of HMGB1
concentration that did not produce significant effect on the proliferation ([2]; cervical cancer cells): 1 mM
concentration with cytotoxic effects ([2]; other studies): ~3000 µM
half-life [3]: 1 h
ROS (O2−·) production ([4]; 0.2 mM): did not have a significant difference in ROS production
ROS (O2−·) production ([4]; 1.4 mM): did not have a significant difference in ROS production

IC50 ([5]; 400 ng/well, 37 °C, 12 µM substrate, mean ± SE): > 1000 µM
IC50 [8]: 153 µM and 154 µM
IC50 ([9]; 1 U/well, 30 °C, 50 µM substrate, mean ± SE): > 1000 µM
Compound: CCCC(CCC)C(=O)Nc1ccccc1O [HO-AAVPA, N-(2′-hydroxyphenyl)-2-propylpentanamide]
HMGB1 localization ([1]; HO-AAVPA 0.2 mM, VPA 1.4 mM): high amount of HMGB1 in the cytoplasm than in the nucleus; also recorded: greater intensity of translocation of HMGB1 from the nucleus to the cytoplasm
HMGB1 fluorescence intensity ([1]; HO-AAVPA 0.2 mM, VPA 1.4 mM): increase in the fluorescence was more; also recorded: significant increase of HMGB1; also recorded: statistically higher
HMGB1 localization ([1]; low concentrations: HO-AAVPA 0.005 mM, VPA 0.35 mM): more HMGB1 in the cytoplasm than VPA
inhibitory activity on HDAC6 ([5]; tested at 1-1000 µM): no inhibitory activity; also recorded: no inhibition was observed
viability at 48 h, 2.5 mM [6]: ~25%
concentration causing cell death ([7]; concentration-dependent): ≥ 1 mM
IC50 ([7]; Homo sapiens, SiHa, MTT): 1600 µM
inhibitory activity on HDAC8 ([9]; tested at 1-1000 µM): no inhibitory activity; also recorded: no inhibition was observed
half-life [3]: 4 h
ROS (O2−·) production ([4]; 0.2 mM): slightly lower, but still higher than the control
ROS (O2−·) production ([4]; 1.4 mM): ROS production was greater; also recorded: increased
